Patent US8466281B2, “2,5-disubstituted morpholine orexin receptor antagonists” (Merck Sharp & Dohme Corp., priority 2008, dated 2013)
pKi: −log10 of the molar value.

How the values were obtained:
orexin-1 receptor (OX1R) = molecular target: T1, orexin-1 receptor (OX1R) (UniProt O43613); test: Radioligand binding assay, OX1R; details: membranes prepared from CHO cells expressing the orexin-1 (OX1) receptor
T1 sequence (O43613 1-425): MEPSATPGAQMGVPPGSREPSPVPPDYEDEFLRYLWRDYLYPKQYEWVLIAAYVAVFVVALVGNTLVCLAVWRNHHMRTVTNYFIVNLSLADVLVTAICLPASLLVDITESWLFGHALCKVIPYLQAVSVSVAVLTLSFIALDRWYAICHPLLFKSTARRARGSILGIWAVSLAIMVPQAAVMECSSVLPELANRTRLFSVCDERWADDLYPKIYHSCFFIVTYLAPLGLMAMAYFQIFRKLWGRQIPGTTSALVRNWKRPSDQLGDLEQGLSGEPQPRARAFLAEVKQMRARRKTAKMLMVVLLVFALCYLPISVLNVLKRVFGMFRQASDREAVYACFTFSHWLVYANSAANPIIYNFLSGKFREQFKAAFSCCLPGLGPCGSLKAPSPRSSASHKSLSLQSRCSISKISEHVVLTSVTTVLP

orexin-2 receptor (OX2R) = molecular target: T2, orexin-2 receptor (OX2R) (Homo sapiens, UniProt O43614); test: Radioligand binding assay, OX2R; details: membranes prepared from CHO cells expressing the orexin-2 (OX2) receptor
T2 construct: expressed in transfected cells; host or cells: CHO cells (membranes)
T2 sequence (O43614 1-444): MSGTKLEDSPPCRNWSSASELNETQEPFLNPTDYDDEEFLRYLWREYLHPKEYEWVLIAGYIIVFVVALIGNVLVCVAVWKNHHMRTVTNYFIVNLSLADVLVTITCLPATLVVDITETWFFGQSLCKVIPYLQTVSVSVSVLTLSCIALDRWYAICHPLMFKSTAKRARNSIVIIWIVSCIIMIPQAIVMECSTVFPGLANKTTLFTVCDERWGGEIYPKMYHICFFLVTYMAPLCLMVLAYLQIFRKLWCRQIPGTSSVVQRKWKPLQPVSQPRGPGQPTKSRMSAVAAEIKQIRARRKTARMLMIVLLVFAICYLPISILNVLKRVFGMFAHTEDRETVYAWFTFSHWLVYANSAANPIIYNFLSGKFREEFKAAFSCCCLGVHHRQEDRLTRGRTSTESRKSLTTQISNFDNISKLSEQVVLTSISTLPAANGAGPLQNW

Structure (SMILES) | pKi (orexin-1 receptor (OX1R)) | pKi (orexin-2 receptor (OX2R))
Cc1ccc(-n2nccn2)c(C(=O)N2C[C@H](COc3ccc(Br)cn3)OC[C@H]2C)c1 [A-10] | 7.68 | 8.89
Cc1ccc(-n2nccn2)c(C(=O)N2C[C@H](COc3ncccc3C)OC[C@H]2C)c1 [A-13, (2R,5R)-5-methyl-2-{[(3-methylpyridin-2-yl)oxy]methyl}-4-[5-methyl-2-(2H-1,2,3-triazol-2-yl)benzoyl]morpholine] | 6.14 | 8.08
Cc1ccc(-n2nccn2)c(C(=O)N2C[C@H](COc3nccc4ccccc34)OC[C@H]2C)c1 [A-11, 1-({(2R,5R)-5-methyl-4-[5-methyl-2-(2H-1,2,3-triazol-2-yl)benzoyl]morpholin-2-yl}methoxy)isoquinoline] | 8.66 | –

Further compounds by rising pKi (orexin-1 receptor (OX1R)), results first:

pKi (orexin-1 receptor (OX1R)) | pKi (orexin-2 receptor (OX2R)) | Structure (SMILES)
7.64 | – | Cc1ccc(-n2nccn2)c(C(=O)N2C[C@H](COc3nccc4ccccc34)OC[C@H]2C)c1 [A-9, 1-({(2R,5R)-5-methyl-4-[5-methyl-2-(2H-1,2,3-triazol-2-yl)benzoyl]morpholin-2-yl}methoxy)isoquinoline]
7.77 | 7.41 | Cc1ccc(-n2nccn2)c(C(=O)N2C[C@H](COc3ccnc4ccccc34)OC[C@H]2C)c1 [A-12, 4-({(2R,5R)-5-methyl-4-[5-methyl-2-(2H-1,2,3-triazol-2-yl)benzoyl]morpholin-2-yl}methoxy)quinoline]
